# Reference: patent US20170247326A1, “Substituted Pyrrolidine Carboxamide Compounds” (EPIZYME, INC., priority 2014, published 2017)
# pIC50: −log10 of the molar value.
# Molecular target: T1, SMYD2 (Homo sapiens, UniProt Q9NRG4)
# T1 construct: Full length SMYD2 (NP_064582.2) was cloned; His6 (N, cleaved yes); FLAG (N); made in house; host or cells: Sf9 insect cells
# Test: SMYD2 biochemical assay (3H-SAM, biotinylated peptide substrate, Flashplate)
# Details: Table 1; average of n = 1 to n = 50; read-out: SMYD2 Biochem IC50
# Procedure, shortened: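 Full-length His/FLAG-tagged SMYD2 (tag removed, Sf9-expressed) at 1.5 nM was preincubated with compound for 30 min at room temperature in Bicine pH 7.6 buffer with 2% DMSO. Reaction used 10 nM 3H-SAM and 60 nM biotinylated peptide, stopped with 600 uM cold SAM. Streptavidin-captured 3H-peptide counted; IC50 from 3- or 4-parameter fit.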
# T1 sequence (Q9NRG4 whole entry): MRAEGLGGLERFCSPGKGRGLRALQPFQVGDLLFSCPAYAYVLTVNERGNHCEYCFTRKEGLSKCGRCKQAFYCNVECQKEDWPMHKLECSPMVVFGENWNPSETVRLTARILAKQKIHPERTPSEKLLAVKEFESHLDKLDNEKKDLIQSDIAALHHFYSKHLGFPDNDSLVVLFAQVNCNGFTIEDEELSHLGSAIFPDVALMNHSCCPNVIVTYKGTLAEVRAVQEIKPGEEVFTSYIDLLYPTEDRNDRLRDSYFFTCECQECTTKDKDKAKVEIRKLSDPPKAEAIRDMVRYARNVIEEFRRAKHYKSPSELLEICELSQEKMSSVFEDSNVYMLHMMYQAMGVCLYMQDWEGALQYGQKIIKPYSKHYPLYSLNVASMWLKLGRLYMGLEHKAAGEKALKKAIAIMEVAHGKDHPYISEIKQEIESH
row,pIC50,Compound
1,4.88,"C[C@H]1CN(C2CC2)C[C@@H]1NC(=O)c1cn(C2CC2)nn1 (racemic) [compound 18, (±)-trans-1-cyclopropyl-N-(1-cyclopropyl-4-methylpyrrolidin-3-yl)-1H-1,2,3-triazole-4-carboxamide]"
2,< 4.30,"CC1Oc2ccc(C(=O)N[C@@H]3CN(C4CC4)C[C@@H]3C)cc2NC1=O (mixture of isomers) [compound 8, (±)-cis-N-(1-cyclopropyl-4-methylpyrrolidin-3-yl)-2-methyl-3-oxo-3,4-dihydro-2H-benzo[b][1,4]oxazine-6-carboxamide]"
3,< 4.30,"C[C@H]1CN(C2CC2)C[C@H]1NC(=O)c1ccc2[nH]c(=O)oc2c1 (racemic) [compound 14, (±)-cis-N-(1-cyclopropyl-4-methylpyrrolidin-3-yl)-2-oxo-2,3-dihydrobenzo[d]oxazole-6-carboxamide]"
4,< 4.30,"C[C@H]1CN(C2CC2)C[C@H]1NC(=O)c1cc(O)nn1C (racemic) [compound 16, (±)-cis-N-(1-cyclopropyl-4-methylpyrrolidin-3-yl)-3-hydroxy-1-methyl-1H-pyrazole-5-carboxamide]"
5,< 4.30,"C[C@H]1CN(C2CC2)C[C@@H]1NC(=O)c1ccc2c(c1)OC(F)(F)O2 (racemic) [compound 1, (±)-trans-N-(1-cyclopropyl-4-methylpyrrolidin-3-yl)-2,2-difluorobenzo[d][1,3]dioxole-5-carboxamide]"
6,< 4.30,"CC1Oc2ccc(C(=O)N[C@H]3CN(C4CC4)C[C@@H]3C)cc2NC1=O (mixture of isomers) [compound 7, (±)-trans-N-(1-cyclopropyl-4-methylpyrrolidin-3-yl)-2-methyl-3-oxo-3,4-dihydro-2H-benzo[b][1,4]oxazine-6-carboxamide]"

# Same assay, conditions: Table 3; average of n = 1 to n = 50; read-out: SMYD2 Biochem IC50
row,pIC50,Compound
1,< 4.30,"CC(=O)N[C@@H]1CN(C(C)C)C[C@@H]1C (racemic) [compound 40, (±)-cis-N-[4-methyl-1-(propan-2-yl)pyrrolidin-3-yl]acetamide]"
2,5.78,"C[C@H]1CN(C)C[C@H]1NC(=O)c1cc(C2CC2)cnn1 (racemic) [compound 103, (±)-cis-5-cyclopropyl-N-(1,4-dimethylpyrrolidin-3-yl)pyridazine-3-carboxamide]"
3,< 4.30,"CC(C)N1C[C@H](C)[C@H](NC(=O)c2cc(C3CC3)ns2)C1 (racemic) [compound 91, (±)-cis-3-cyclopropyl-N-[4-methyl-1-(propan-2-yl)pyrrolidin-3-yl]-1,2-thiazole-5-carboxamide]"
4,4.40,"CC(C)N1C[C@@H](C)[C@H](NC(=O)c2nnc(C3CC3)s2)C1 (racemic) [compound 48, (±)-trans-5-cyclopropyl-N-[4-methyl-1-(propan-2-yl)pyrrolidin-3-yl]-1,3,4-thiadiazole-2-carboxamide]"
5,< 4.30,"CC(C)N1C[C@@H](C)[C@@H](NC(=O)c2cc(C3CC3)n(C)n2)C1 (racemic) [compound 89, (±)-cis-5-cyclopropyl-1-methyl-N-[4-methyl-1-(propan-2-yl)pyrrolidin-3-yl]-1H-pyrazole-3-carboxamide]"
6,< 4.30,"CC(C)N1C[C@H](C)[C@H](NC(=O)c2cnc(C3CC3)o2)C1 (racemic) [compound 78, (±)-cis-2-cyclopropyl-N-[4-methyl-1-(propan-2-yl)pyrrolidin-3-yl]-1,3-oxazole-5-carboxamide]"
7,< 4.30,"CC(C)N1C[C@@H](C)[C@H](NC(=O)c2cnc(C3CC3)cn2)C1 (racemic) [compound 52, (±)-trans-5-cyclopropyl-N-[4-methyl-1-(propan-2-yl)pyrrolidin-3-yl]pyrazine-2-carboxamide]"
8,< 4.30,"CC(C)N1C[C@@H](C)[C@H](NC(=O)c2ccn(C(C)C)n2)C1 (racemic) [compound 45, (±)-trans-N-[4-methyl-1-(propan-2-yl)pyrrolidin-3-yl]-1-(propan-2-yl)-1H-pyrazole-3-carboxamide]"
9,6.24,"C[C@H]1CN(Cc2ccccc2)C[C@H]1NC(=O)c1cc(C2CC2)cnn1 (racemic) [compound 99, (±)-cis-N-(1-benzyl-4-methylpyrrolidin-3-yl)-5-cyclopropylpyridazine-3-carboxamide]"
10,< 4.30,"CC(C)N1C[C@H](C)[C@H](NC(=O)c2coc(C3CC3)n2)C1 (racemic) [compound 63, (±)-cis-2-cyclopropyl-N-[4-methyl-1-(propan-2-yl)pyrrolidin-3-yl]-1,3-oxazole-4-carboxamide]"
11,5.33,"CC(C)N1C[C@H](C)[C@H](NC(=O)c2nnc(C3CC3)o2)C1 (racemic) [compound 53, (±)-cis-5-cyclopropyl-N-[4-methyl-1-(propan-2-yl)pyrrolidin-3-yl]-1,3,4-oxadiazole-2-carboxamide]"
12,< 4.30,"CC(C)N1C[C@H](C)[C@H](NC(=O)CCN2CCCC2)C1 (racemic) [compound 56, (±)-cis-N-[4-methyl-1-(propan-2-yl)pyrrolidin-3-yl]-3-(pyrrolidin-1-yl)propanamide]"
13,6.37,"CC(C)N1C[C@@H](C)[C@@H](NC(=O)c2cc(C3CC3)cnn2)C1 (stereo in doubt) [compound 110, (±)-cis-5-cyclopropyl-N-[4-methyl-1-(propan-2-yl)pyrrolidin-3-yl]pyridazine-3-carboxamide]"
14,< 4.30,"CC(C)N1C[C@@H](C)[C@H](NC(=O)c2coc(C3CC3)n2)C1 (racemic) [compound 54, (±)-trans-2-cyclopropyl-N-[4-methyl-1-(propan-2-yl)pyrrolidin-3-yl]-1,3-oxazole-4-carboxamide]"
15,< 4.30,"CC(C)N1C[C@H](NC(=O)c2cnn(C(C)C)c2)[C@@H](C)C1 (racemic) [compound 47, (±)-trans-N-[4-methyl-1-(propan-2-yl)pyrrolidin-3-yl]-1-(propan-2-yl)-1H-pyrazole-4-carboxamide]"
16,5.68,"CC(C)N1C[C@H](C)[C@H](NC(=O)c2cc(C3CC3)cnn2)C1 (stereo in doubt) [compound 98, rel-5-cyclopropyl-N-[(3S,4S)-4-methyl-1-(propan-2-yl)pyrrolidin-3-yl]pyridazine-3-carboxamide]"
17,< 4.30,"CC(C)N1C[C@H](C)[C@H](NC(=O)c2nsc(C3CC3)n2)C1 (racemic) [compound 88, (±)-cis-5-cyclopropyl-N-[4-methyl-1-(propan-2-yl)pyrrolidin-3-yl]-1,2,4-thiadiazole-3-carboxamide]"
18,< 4.30,"CC(C)N1C[C@@H](C)[C@H](NC(=O)c2cnc(C3CC3)o2)C1 (racemic) [compound 70, (±)-trans-2-cyclopropyl-N-[4-methyl-1-(propan-2-yl)pyrrolidin-3-yl]-1,3-oxazole-5-carboxamide]"
19,< 4.30,"CC(C)N1C[C@@H](C)[C@H](NC(=O)c2cn(C(C)C)nn2)C1 (racemic) [compound 24, (±)-trans-N-[4-methyl-1-(propan-2-yl)pyrrolidin-3-yl]-1-(propan-2-yl)-1H-1,2,3-triazole-4-carboxamide]"
20,5.66,"CC(C)N1C[C@@H](C)[C@@H](NC(=O)c2cn(C3CC3)cn2)C1 (stereo in doubt) [compound 121, (±)-cis-1-cyclopropyl-N-(1-isopropyl-4-methylpyrrolidin-3-yl)-1H-imidazole-4-carboxamide]"
21,< 4.30,"CC(C)N1C[C@@H](C)[C@H](NC(=O)c2cnnc(C3CC3)c2)C1 (racemic) [compound 65, (±)-trans-6-cyclopropyl-N-[4-methyl-1-(propan-2-yl)pyrrolidin-3-yl]pyridazine-4-carboxamide]"
22,6.34,"C[C@H]1CN(Cc2ccc(OCc3ccccc3)cc2)C[C@H]1NC(=O)c1cn(C2CC2)nn1 (stereo in doubt) [compound 106, (±)-cis-N-(1-{[4-(benzyloxy)phenyl]methyl}-4-methylpyrrolidin-3-yl)-1-cyclopropyl-1H-1,2,3-triazole-4-carboxamide]"
23,4.98,"CC(C)c1cnnc(C(=O)N[C@@H]2CN(C(C)C)C[C@@H]2C)c1 (racemic) [compound 118, (±)-cis-5-isopropyl-N-(1-isopropyl-4-methylpyrrolidin-3-yl)pyridazine-3-carboxamide]"
24,< 4.30,"CC(C)N1C[C@@H](C)[C@H](NC(=O)c2noc(C3CC3)n2)C1 (racemic) [compound 39, (±)-trans-5-cyclopropyl-N-[4-methyl-1-(propan-2-yl)pyrrolidin-3-yl]-1,2,4-oxadiazole-3-carboxamide]"

# Same assay, conditions: Table 4; average of n = 1 to n = 50; read-out: SMYD2 Biochem IC50
row,pIC50,Compound
1,5.57,"C[C@H]1CN(Cc2ccc(OCc3ccccc3)cc2)C[C@@H]1NC(=O)c1cc(C2CC2)cnn1 (racemic) [compound 132, rac-N-((3R,4S)-1-(4-(benzyloxy)benzyl)-4-methylpyrrolidin-3-yl)-5-cyclopropylpyridazine-3-carboxamide]"
2,4.94,"CC(C)N1CC(NC(=O)c2cc(C3CC3)cnn2)CC1C (centres unmarked) [compound 125, 5-cyclopropyl-N-(1-isopropyl-5-methylpyrrolidin-3-yl)pyridazine-3-carboxamide]"
3,< 4.30,"CNCCS(=O)(=O)N1C[C@H](C)[C@H](NC(=O)c2cc(C3CC3)cnn2)C1 (racemic) [compound 128, rac-5-cyclopropyl-N-((3R,4R)-4-methyl-1-((2-(methylamino)ethyl)sulfonyl)pyrrolidin-3-yl)pyridazine-3-carboxamide]"
4,< 4.30,"C[C@H]1CN(S(=O)(=O)CCN)C[C@H]1NC(=O)c1cc(C2CC2)cnn1 (racemic) [compound 127, rac-N-((3R,4R)-1-((2-aminoethyl)sulfonyl)-4-methylpyrrolidin-3-yl)-5-cyclopropylpyridazine-3-carboxamide]"
5,6.34,"C[C@@H]1CN(Cc2ccc(OCc3ccccc3)cc2)C[C@@H]1NC(=O)c1cn(C2CC2)nn1 (stereo in doubt) [compound 131, rac-N-((3R,4R)-1-(4-(benzyloxy)benzyl)-4-methylpyrrolidin-3-yl)-1-cyclopropyl-1H-1,2,3-triazole-4-carboxamide]"
